Experimental data taken from publication PMC7898037, “Improving mitochondria and ER stability helps eliminate upper motor neuron degeneration that occurs due to mSOD1 toxicity and TDP‐43 pathology” (Clinical and Translational Medicine, 2021).

Legend:
[1] = system: UMN apical dendrites of WT‐UeGFP mice; test: UMN apical dendrites with vacuoles, WT‐UeGFP mice; assay type: in vivo
Experimental: (§1) hSOD1^G93A‐UeGFP, prpTDP‐43^A315T‐UeGFP and WT‐UeGFP mice were weighed and the required NU‐9 dose per weight was calculated (20 or 100 mg/kg), which was administered once daily by oral gavage, starting at postnatal day (P)60 and continuing until P120. Animals from the untreated group received the vehicle (NMP and olive oil) only. For oral administration purposes, 20 ga × 38 mm plastic feeding tubes were used (Instech Laboratories, Inc). The gavage tip was inserted into the mouth directly over the tongue and into the pharynx. While observing the swallowing reflex, the tip was safely and smoothly slid into the esophagus. Once the administration was completed, the gavage tip was pulled straight out.
Mice were deeply anesthetized using ketamine (90 mg/kg) with xylazine (10 mg/kg), and transcardially perfused with 4% PFA in PBS. The brains were removed intact and postfixed (4% PFA, overnight) and stored in PBS with sodium azide (0.01%) at 4°C. Sections were cut in a coronal (50 µm) plane using a vibratome (Leica) and processed for immunocytochemical analyses.
The antibodies used are as follows: anti‐GFP (1:1000, Invitrogen; or 1:1000, Abcam) and anti‐misfolded SOD1 (B8H10, 1:250, Médimabs). Briefly, sections were treated with blocking solution (PBS, 0.05% BSA, 2% FBS, 1% Triton X‐100, and 0.1% saponin) for 30 min at room temperature and incubated with primary antibody diluted in blocking solution overnight at 4°C. Appropriate secondary fluorescent antibodies (1:500, AlexaFluor‐conjugated, Invitrogen) were added to the blocking solution at room temperature for 2 h in the dark.

WT‐UeGFP mice = test: Rotarod test, WT‐UeGFP mice; assay type: in vivo; design: Rotarod, Mean Diff. (vehicle minus NU-9) / Rotarod, mean difference G vehicle vs. G NU-9 (20) / Rotarod, mean difference G vehicle vs. G NU-9 (100): unit not given here; conditions: for Rotarod, group mean (Mean 1 / Mean 2 of 2way ANOVA multiple comparisons): WT-UeGFP (G); for Rotarod, group mean (Mean 1 / Mean 2) / Rotarod, Mean Diff. (vehicle minus NU-9): WT-UeGFP mice; for Rotarod, Average / Rotarod, mean difference G vehicle vs. G NU-9 (20) / Rotarod, mean difference G vehicle vs. G NU-9 (100): WT-UeGFP; for Rotarod, mean difference G vehicle vs. G NU-9 (20): vehicle minus NU-9 20 mg/kg/day; for Rotarod, mean difference G vehicle vs. G NU-9 (100): vehicle minus NU-9 100 mg/kg/day
Experimental: as §1
Behavior data were collected from hSOD1^G93A‐UeGFP and WT‐UeGFP mice (starting at P60 and every 7 days until P116) and from prpTDP‐43^A315T‐UeGFP mice (at P60, P90, and P120) with the following number of mice for each group: WT‐UeGFP vehicle (n = 10), hSOD1^G93A‐UeGFP vehicle (n = 6), WT‐UeGFP 20 mg/kg/day NU‐9 (n = 5), hSOD1^G93A‐UeGFP 20 mg/kg/day NU‐9 (n = 7), WT‐UeGFP 100 mg/kg/day NU‐9 (n = 11), hSOD1^G93A‐UeGFP 100 mg/kg/day NU‐9 (n = 9), prpTDP‐43^A315T‐UeGFP untreated (n ≥ 3), and prpTDP‐43^A315T‐UeGFP 100 mg/kg/day NU‐9 (n = 4) (Table S3).
Mice were placed on a rotating rod that accelerates linearly from 4 to 40 rpm (Rotarod, Ugo Basile), and the average time spent on the rotating rod for three consecutive trials was calculated for each mouse. Mice were allowed to run for a maximum of 5 min with a 5 min rest period between each run, and the latency to fall was recorded for three consecutive trials. The average of the three trials was taken as the data point for each mouse at the age tested, and the performance of different groups are reported as the mean ± SEM.

[2] = WT-UeGFP mice, NU-9 100 mg/kg/day

Structure (SMILES): C[C@H](Oc1cc(C(F)(F)F)cc(C(F)(F)F)c1)C1CC(=O)CC(=O)C1 [NU‐9]
- Mean, Fig. 4G (UMN apical dendrites with vacuoles) [1, 2]: 16.43
- Mean, Fig. 7E (UMN apical dendrites with vacuoles) [1, 2]: 16.43
- Mean Diff., Fig. 7E, G vehicle vs. G NU-9 (100) ([1]; WT-UeGFP vehicle minus NU-9 100 mg/kg/day, Tukey's multiple comparisons test): 17.11
- Mean Diff., Fig. 4G, G Vehicle vs. G NU-9 (100) ([1]; WT-UeGFP vehicle minus WT-UeGFP NU-9 100 mg/kg/day, Tukey's multiple comparisons test): 11.77
- percentage of UMN apical dendrites with vacuoles ([1]; WT‐UeGFP mice, 100 mg/kg/day oral gavage P60–P120): 16% ± 5%
- Rotarod, group mean (Mean 1 / Mean 2 of 2way ANOVA multiple comparisons) (WT‐UeGFP mice; NU-9 20 mg/kg/day, P102): 295.1
- Rotarod, group mean (Mean 1 / Mean 2 of 2way ANOVA multiple comparisons) (WT‐UeGFP mice; NU-9 20 mg/kg/day, P109): 291
- Rotarod, group mean (Mean 1 / Mean 2 of 2way ANOVA multiple comparisons) (WT‐UeGFP mice; NU-9 20 mg/kg/day, P116): 298.9
- Rotarod, group mean (Mean 1 / Mean 2 of 2way ANOVA multiple comparisons) (WT‐UeGFP mice; NU-9 100 mg/kg/day, P102): 251.4
- Rotarod, group mean (Mean 1 / Mean 2 of 2way ANOVA multiple comparisons) (WT‐UeGFP mice; NU-9 100 mg/kg/day, P109): 241.3
- Rotarod, group mean (Mean 1 / Mean 2 of 2way ANOVA multiple comparisons) (WT‐UeGFP mice; NU-9 100 mg/kg/day, P116): 221.3
- Rotarod, group mean (Mean 1 / Mean 2) (WT‐UeGFP mice; NU-9 20 mg/kg/day, P60): 260.7
- Rotarod, group mean (Mean 1 / Mean 2) (WT‐UeGFP mice; NU-9 20 mg/kg/day, P67): 279.2
- Rotarod, group mean (Mean 1 / Mean 2) (WT‐UeGFP mice; NU-9 20 mg/kg/day, P74): 295.3
- Rotarod, group mean (Mean 1 / Mean 2) (WT‐UeGFP mice; NU-9 20 mg/kg/day, P81): 286.1
- Rotarod, group mean (Mean 1 / Mean 2) (WT‐UeGFP mice; NU-9 20 mg/kg/day, P88): 285.5
- Rotarod, group mean (Mean 1 / Mean 2) (WT‐UeGFP mice; NU-9 20 mg/kg/day, P95): 279.3
- Rotarod, group mean (Mean 1 / Mean 2) (WT‐UeGFP mice; NU-9 100 mg/kg/day, P60): 250.1
- Rotarod, group mean (Mean 1 / Mean 2) (WT‐UeGFP mice; NU-9 100 mg/kg/day, P67): 261.4
- Rotarod, group mean (Mean 1 / Mean 2) (WT‐UeGFP mice; NU-9 100 mg/kg/day, P74): 261.2
- Rotarod, group mean (Mean 1 / Mean 2) (WT‐UeGFP mice; NU-9 100 mg/kg/day, P81): 258.5
- Rotarod, group mean (Mean 1 / Mean 2) (WT‐UeGFP mice; NU-9 100 mg/kg/day, P88): 256.5
- Rotarod, group mean (Mean 1 / Mean 2) (WT‐UeGFP mice; NU-9 100 mg/kg/day, P95): 262.2
- Rotarod, Mean Diff. (vehicle minus NU-9) (WT‐UeGFP mice; vehicle vs. NU-9 20 mg/kg/day, P60): 10.27
- Rotarod, Mean Diff. (vehicle minus NU-9) (WT‐UeGFP mice; vehicle vs. NU-9 20 mg/kg/day, P67): -0.9667
- Rotarod, Mean Diff. (vehicle minus NU-9) (WT‐UeGFP mice; vehicle vs. NU-9 20 mg/kg/day, P74): -13.73
- Rotarod, Mean Diff. (vehicle minus NU-9) (WT‐UeGFP mice; vehicle vs. NU-9 20 mg/kg/day, P81): -2.267
- Rotarod, Mean Diff. (vehicle minus NU-9) (WT‐UeGFP mice; vehicle vs. NU-9 20 mg/kg/day, P88): -1.533
- Rotarod, Mean Diff. (vehicle minus NU-9) (WT‐UeGFP mice; vehicle vs. NU-9 20 mg/kg/day, P95): 5.033
- Rotarod, Mean Diff. (vehicle minus NU-9) (WT‐UeGFP mice; vehicle vs. NU-9 20 mg/kg/day, P102): -24.77
- Rotarod, Mean Diff. (vehicle minus NU-9) (WT‐UeGFP mice; vehicle vs. NU-9 20 mg/kg/day, P109): -17.03
- Rotarod, Mean Diff. (vehicle minus NU-9) (WT‐UeGFP mice; vehicle vs. NU-9 20 mg/kg/day, P116): -40.09
- Rotarod, Mean Diff. (vehicle minus NU-9) (WT‐UeGFP mice; vehicle vs. NU-9 100 mg/kg/day, P60): 20.91
- Rotarod, Mean Diff. (vehicle minus NU-9) (WT‐UeGFP mice; vehicle vs. NU-9 100 mg/kg/day, P67): 16.81
- Rotarod, Mean Diff. (vehicle minus NU-9) (WT‐UeGFP mice; vehicle vs. NU-9 100 mg/kg/day, P74): 20.39
- Rotarod, Mean Diff. (vehicle minus NU-9) (WT‐UeGFP mice; vehicle vs. NU-9 100 mg/kg/day, P81): 25.41
- Rotarod, Mean Diff. (vehicle minus NU-9) (WT‐UeGFP mice; vehicle vs. NU-9 100 mg/kg/day, P88): 27.48
- Rotarod, Mean Diff. (vehicle minus NU-9) (WT‐UeGFP mice; vehicle vs. NU-9 100 mg/kg/day, P95): 22.09
- Rotarod, Mean Diff. (vehicle minus NU-9) (WT‐UeGFP mice; vehicle vs. NU-9 100 mg/kg/day, P102): 18.94
- Rotarod, Mean Diff. (vehicle minus NU-9) (WT‐UeGFP mice; vehicle vs. NU-9 100 mg/kg/day, P109): 32.69
- Rotarod, Mean Diff. (vehicle minus NU-9) (WT‐UeGFP mice; vehicle vs. NU-9 100 mg/kg/day, P116): 37.47
- Rotarod, Average (WT‐UeGFP mice; NU-9 20 mg/kg/day po, P60): 260.733 s
- Rotarod, Average (WT‐UeGFP mice; NU-9 20 mg/kg/day po, P67): 279.2 s
- Rotarod, Average (WT‐UeGFP mice; NU-9 20 mg/kg/day po, P74): 295.333 s
- Rotarod, Average (WT‐UeGFP mice; NU-9 20 mg/kg/day po, P81): 286.133 s
- Rotarod, Average (WT‐UeGFP mice; NU-9 20 mg/kg/day po, P88): 285.467 s
- Rotarod, Average (WT‐UeGFP mice; NU-9 20 mg/kg/day po, P95): 279.267 s
- Rotarod, Average (WT‐UeGFP mice; NU-9 20 mg/kg/day po, P102): 295.133 s
- Rotarod, Average (WT‐UeGFP mice; NU-9 20 mg/kg/day po, P109): 291 s
- Rotarod, Average (WT‐UeGFP mice; NU-9 20 mg/kg/day po, P116): 298.867 s
- Rotarod, Average (WT‐UeGFP mice; NU-9 100 mg/kg/day po, P60): 250.091 s
- Rotarod, Average (WT‐UeGFP mice; NU-9 100 mg/kg/day po, P67): 261.424 s
- Rotarod, Average (WT‐UeGFP mice; NU-9 100 mg/kg/day po, P74): 261.212 s
- Rotarod, Average (WT‐UeGFP mice; NU-9 100 mg/kg/day po, P81): 258.455 s
- Rotarod, Average (WT‐UeGFP mice; NU-9 100 mg/kg/day po, P88): 256.455 s
- Rotarod, Average (WT‐UeGFP mice; NU-9 100 mg/kg/day po, P95): 262.212 s
- Rotarod, Average (WT‐UeGFP mice; NU-9 100 mg/kg/day po, P102): 251.424 s
- Rotarod, Average (WT‐UeGFP mice; NU-9 100 mg/kg/day po, P109): 241.273 s
- Rotarod, Average (WT‐UeGFP mice; NU-9 100 mg/kg/day po, P116): 221.303 s
- Rotarod, mean difference G vehicle vs. G NU-9 (20) (WT‐UeGFP mice; P102): -24.77
- Rotarod, mean difference G vehicle vs. G NU-9 (20) (WT‐UeGFP mice; P109): -17.03
- Rotarod, mean difference G vehicle vs. G NU-9 (20) (WT‐UeGFP mice; P116): -40.09
- Rotarod, mean difference G vehicle vs. G NU-9 (100) (WT‐UeGFP mice; P102): 18.94
- Rotarod, mean difference G vehicle vs. G NU-9 (100) (WT‐UeGFP mice; P109): 32.69
- Rotarod, mean difference G vehicle vs. G NU-9 (100) (WT‐UeGFP mice; P116): 37.47
